Test results as given in patent US8268781B2.
Like-named read-outs stand apart in the source and are kept apart here.

Experiment: Ex vivo bio-distribution studies
Conditions: In-111 labeled, 555 kBq tail vein, mean of 4 mice; for tissue uptake at 1 h / tissue uptake at 4 h / tissue uptake at 24 h: mouse, iv, total radioactivity; for tissue uptake at 1 h: 1 h p.i.
Description: The in vivo bio-distribution can, for example, be shown in rodents such as hairless mice. For this purpose […] CHO cells are injected into hairless mice. After approx. 3 to 5 weeks tumors approx. 300 mg in size had grown.
1, 4 und 24 h p.i. all the mice are killed and their organs removed.
The uptake of radioactivity is measured and the organs are weighed. The % of injected dose program of organ weight is calculated.
Mean value from the bio-distribution with 4 mice pro group in % i.D./g Stadev: standard deviation.

CC[C@H](C)[C@H](NC(=O)[C@H](Cc1ccccc1)NC(=O)[C@H](CCC(=O)O)NC(=O)[C@H](CCCCN)NC(=O)[C@H](C)NC(=O)[C@H](C)NC(=O)[C@H](CCC(N)=O)NC(=O)CNC(=O)[C@H](CCC(=O)O)NC(=O)[C@H](CC(C)C)NC(=O)[C@H](Cc1ccc(O)cc1)NC(=O)[C@H](CO)NC(=O)[C@H](CO)NC(=O)[C@@H](NC(=O)[C@H](CC(=O)O)NC(=O)[C@H](CO)NC(=O)[C@@H](NC(=O)[C@H](Cc1ccccc1)NC(=O)[C@@H](NC(=O)CNC(=O)[C@H](CCC(=O)O)NC(=O)[C@H](C)NC(=O)[C@@H](N)Cc1c[nH]cn1)[C@@H](C)O)[C@@H](C)O)C(C)C)C(=O)N[C@@H](C)C(=O)N[C@@H](Cc1c[nH]c2ccccc12)C(=O)N[C@@H](CC(C)C)C(=O)N[C@H](C(=O)N[C@@H](CCCCN)C(=O)NCC(=O)N[C@@H](CCCNC(=N)N)C(=O)N[C@@H](CCCCNC(=O)CN(CCN(CCN(CC(=O)O)CC(=O)O)CC(=O)O)CC(=O)O)C(N)=O)C(C)C [MC10, (DTPA-Lys^37) GLP1 (7-36) amide]
Uptake in Blood (4 h p.i.): 0.00 % i.D./g | Uptake in Muscle (4 h p.i.): 0.00 % i.D./g | Uptake in Blood (24 h p.i.): 0.00 % i.D./g | Uptake in Heart (24 h p.i.): 0.00 % i.D./g | Uptake in Muscle (24 h p.i.): 0.00 % i.D./g | tissue uptake at 1 h (hairless mice, pancreas, read-out: Uptake in Pancreas): 0.58 %ID/g | tissue uptake at 4 h (hairless mice, pancreas, 4 h p.i., read-out: Uptake in Pancreas): 0.62 %ID/g | tissue uptake at 1 h (hairless mice, spleen, read-out: Uptake in Spleen): 0.02 %ID/g | tissue uptake at 4 h (hairless mice, spleen, 4 h p.i., read-out: Uptake in Spleen): 0.01 %ID/g | tissue uptake at 24 h (hairless mice, spleen, 24 h p.i., read-out: Uptake in Spleen): 0.01 %ID/g | tissue uptake at 1 h (hairless mice, stomach, read-out: Uptake in Stomach): 0.14 %ID/g | tissue uptake at 4 h (hairless mice, stomach, 4 h p.i., read-out: Uptake in Stomach): 0.13 %ID/g | tissue uptake at 24 h (hairless mice, stomach, 24 h p.i., read-out: Uptake in Stomach): 0.07 %ID/g | tissue uptake at 24 h (hairless, GLP-1 receptor negative tumor, 24 h p.i., read-out: Uptake in Tumor− (GLP-1 receptor negative tumor)): 0.01 %ID/g | tissue uptake at 1 h (hairless, GLP-1 receptor positive tumor, read-out: Uptake in Tumor+ (GLP-1 receptor positive tumor)): 0.42 %ID/g | tissue uptake at 4 h (hairless, GLP-1 receptor positive tumor, 4 h p.i., read-out: Uptake in Tumor+ (GLP-1 receptor positive tumor)): 0.31 %ID/g | tissue uptake at 24 h (hairless, GLP-1 receptor positive tumor, 24 h p.i., read-out: Uptake in Tumor+ (GLP-1 receptor positive tumor)): 0.2 %ID/g | tissue uptake at 1 h (hairless, blood, read-out: Uptake in Blood): 0.01 %ID/g | tissue uptake at 1 h (hairless, liver, read-out: Uptake in Liver): 0.03 %ID/g | tissue uptake at 4 h (hairless, liver, 4 h p.i., read-out: Uptake in Liver): 0.01 %ID/g | tissue uptake at 24 h (hairless, liver, 24 h p.i., read-out: Uptake in Liver): 0.01 %ID/g | tissue uptake at 1 h (GLP-1 receptor negative tumor, read-out: Uptake in Tumor− (GLP-1 receptor negative tumor)): 0.03 %ID/g | tissue uptake at 4 h (GLP-1 receptor negative tumor, 4 h p.i., read-out: Uptake in Tumor− (GLP-1 receptor negative tumor)): 0.02 %ID/g | tissue uptake at 1 h (bones, read-out: Uptake in Bones): 0.02 %ID/g | tissue uptake at 4 h (bones, 4 h p.i., read-out: Uptake in Bones): 0.01 %ID/g | tissue uptake at 24 h (bones, 24 h p.i., read-out: Uptake in Bones): 0.01 %ID/g | tissue uptake at 1 h (heart, read-out: Uptake in Heart): 0.02 %ID/g | tissue uptake at 4 h (heart, 4 h p.i., read-out: Uptake in Heart): 0.01 %ID/g | tissue uptake at 1 h (intestine, read-out: Uptake in Intestine): 0.12 %ID/g | tissue uptake at 4 h (intestine, 4 h p.i., read-out: Uptake in Intestine): 0.07 %ID/g | tissue uptake at 24 h (intestine, 24 h p.i., read-out: Uptake in Intestine): 0.04 %ID/g | tissue uptake at 1 h (kidneys, read-out: Uptake in Kidneys): 7.9 %ID/g | tissue uptake at 4 h (kidneys, 4 h p.i., read-out: Uptake in Kidneys): 7.41 %ID/g | tissue uptake at 24 h (kidneys, 24 h p.i., read-out: Uptake in Kidneys): 4.85 %ID/g | tissue uptake at 1 h (lungs, read-out: Uptake in Lungs): 0.8 %ID/g | tissue uptake at 4 h (lungs, 4 h p.i., read-out: Uptake in Lungs): 0.36 %ID/g | tissue uptake at 24 h (lungs, 24 h p.i., read-out: Uptake in Lungs): 0.22 %ID/g | tissue uptake at 1 h (muscle, read-out: Uptake in Muscle): 0.01 %ID/g | tissue uptake at 24 h (pancreas, 24 h p.i., read-out: Uptake in Pancreas): 0.37 %ID/g
